Activity calls are given as the source filed them. The rule behind the calls is not given here.
Experiments:
Format in all cases: functional
[1] = tested on: RS4-11; assay: Induction of cell cycle arrest in human RS4-11 cells assessed as accumulation of cells in G2/M phase at 1.25 to 10 uM measured after 72 hrs by PI staining based flow cytometry analysis; settings: dose 1.25-10 µM
[2] = tested on: RPMI-8226; assay: Antiproliferative activity against human RPMI-8226 cells assessed as growth inhibition measured after 48 hrs by NCI protocol based SRB assay
[3] = tested on: CCRF-CEM; assay: Antiproliferative activity against human CCRF-CEM cells assessed as growth inhibition measured after 48 hrs by NCI protocol based SRB assay
[4] = tested on: MOLT-4; assay: Antiproliferative activity against human MOLT-4 cells assessed as growth inhibition measured after 48 hrs by NCI protocol based SRB assay
[5] = tested on: HOP-92; assay: Antiproliferative activity against human HOP-92 cells assessed as growth inhibition measured after 48 hrs by NCI protocol based SRB assay
[6] = tested on: NCI-H460; assay: Antiproliferative activity against human NCI-H460 cells assessed as growth inhibition measured after 48 hrs by NCI protocol based SRB assay
[7] = tested on: HCT-116; assay: Antiproliferative activity against human HCT-116 cells assessed as growth inhibition measured after 48 hrs by NCI protocol based SRB assay
[8] = tested on: COLO 205; assay: Antiproliferative activity against human COLO 205 cells assessed as growth inhibition measured after 48 hrs by NCI protocol based SRB assay
[9] = tested on: KM12; assay: Antiproliferative activity against human KM12 cells assessed as growth inhibition measured after 48 hrs by NCI protocol based SRB assay
[10] = tested on: HCC 2998; assay: Antiproliferative activity against human HCC 2998 cells assessed as growth inhibition measured after 48 hrs by NCI protocol based SRB assay
[11] = tested on: SF-539; assay: Antiproliferative activity against human SF-539 cells assessed as growth inhibition measured after 48 hrs by NCI protocol based SRB assay
[12] = tested on: U-251; assay: Antiproliferative activity against human U-251 cells assessed as growth inhibition measured after 48 hrs by NCI protocol based SRB assay
[13] = tested on: Malme-3M; assay: Antiproliferative activity against human Malme-3M cells assessed as growth inhibition measured after 48 hrs by NCI protocol based SRB assay
[14] = tested on: LOX IMVI; assay: Antiproliferative activity against human LOX IMVI cells assessed as growth inhibition measured after 48 hrs by NCI protocol based SRB assay
[15] = tested on: SK-MEL-2; assay: Antiproliferative activity against human SK-MEL-2 cells assessed as growth inhibition measured after 48 hrs by NCI protocol based SRB assay
[16] = tested on: IGROV-1; assay: Antiproliferative activity against human IGROV-1 cells assessed as growth inhibition measured after 48 hrs by NCI protocol based SRB assay
[17] = tested on: OVCAR-3; assay: Antiproliferative activity against human OVCAR-3 cells assessed as growth inhibition measured after 48 hrs by NCI protocol based SRB assay
[18] = tested on: OVCAR-4; assay: Antiproliferative activity against human OVCAR-4 cells assessed as growth inhibition measured after 48 hrs by NCI protocol based SRB assay
[19] = tested on: SN12C; assay: Antiproliferative activity against human SN12C cells assessed as growth inhibition measured after 48 hrs by NCI protocol based SRB assay
[20] = tested on: CAKI-1; assay: Antiproliferative activity against human CAKI-1 cells assessed as growth inhibition measured after 48 hrs by NCI protocol based SRB assay
[21] = tested on: UO-31; assay: Antiproliferative activity against human UO-31 cells assessed as growth inhibition measured after 48 hrs by NCI protocol based SRB assay
[22] = tested on: T47D; assay: Antiproliferative activity against human T47D cells assessed as growth inhibition measured after 48 hrs by NCI protocol based SRB assay
[23] = tested on: Hs-578T; assay: Antiproliferative activity against human Hs-578T cells assessed as growth inhibition measured after 48 hrs by NCI protocol based SRB assay
[24] = tested on: MDA-MB-468; assay: Antiproliferative activity against human MDA-MB-468 cells assessed as growth inhibition measured after 48 hrs by NCI protocol based SRB assay
[25] = tested on: SR; assay: Cytostatic activity in human SR cells assessed as tumor growth inhibition measured after 48 hrs by NCI protocol based SRB assay
[26] = tested on: HOP-62; assay: Cytostatic activity in human HOP-62 cells assessed as tumor growth inhibition measured after 48 hrs by NCI protocol based SRB assay
[27] = tested on: HOP-92; assay: Cytostatic activity in human HOP-92 cells assessed as tumor growth inhibition measured after 48 hrs by NCI protocol based SRB assay
[28] = tested on: HCT-15; assay: Cytostatic activity in human HCT-15 cells assessed as tumor growth inhibition measured after 48 hrs by NCI protocol based SRB assay
[29] = tested on: MDA-MB-435; assay: Cytostatic activity in human MDA-MB-435 cells assessed as tumor growth inhibition measured after 48 hrs by NCI protocol based SRB assay
[30] = tested on: M14; assay: Cytostatic activity in human M14 cells assessed as tumor growth inhibition measured after 48 hrs by NCI protocol based SRB assay
[31] = tested on: SK-MEL-5; assay: Cytostatic activity in human SK-MEL-5 cells assessed as tumor growth inhibition measured after 48 hrs by NCI protocol based SRB assay
[32] = tested on: OVCAR-4; assay: Cytostatic activity in human OVCAR-4 cells assessed as tumor growth inhibition measured after 48 hrs by NCI protocol based SRB assay
[33] = tested on: OVCAR-8; assay: Cytostatic activity in human OVCAR-8 cells assessed as tumor growth inhibition measured after 48 hrs by NCI protocol based SRB assay
[34] = tested on: NCI/ADR-RES; assay: Cytostatic activity in human NCl/ADR-RES cells assessed as tumor growth inhibition measured after 48 hrs by NCI protocol based SRB assay
[35] = tested on: SK-OV-3; assay: Cytostatic activity in human SK-OV-3 cells assessed as tumor growth inhibition measured after 48 hrs by NCI protocol based SRB assay
[36] = tested on: DU-145; assay: Cytostatic activity in human DU-145 cells assessed as tumor growth inhibition measured after 48 hrs by NCI protocol based SRB assay
[37] = tested on: MCF7; assay: Cytostatic activity in human MCF7 cells assessed as tumor growth inhibition measured after 48 hrs by NCI protocol based SRB assay
[38] = tested on: T47D; assay: Cytostatic activity in human T47D cells assessed as tumor growth inhibition measured after 48 hrs by NCI protocol based SRB assay
[39] = read-out: LC50 (the source's name)

Question: Which Activity [1] does the source give for `Cc1ccc(-c2nc3c(c(-c4ccccc4)nn3-c3ccccc3)c(-c3ccc(O)cc3)c2C#N)cc1` here?
Answer: The Activity was “Active”.

Question: What does the source list for `N#Cc1c(-c2ccccc2)nc2c(c(-c3ccccc3)nn2-c2ccccc2)c1-c1ccc(O)cc1`?
Answer: GI50 [2]: 2.42 µM; CC50 [2, 39]: > 100 µM; GI50 [3]: 3.13 µM; CC50 [3, 39]: > 100 µM; GI50 [4]: 2.49 µM; CC50 [4, 39]: > 100 µM; GI50 [5]: 2.06 µM; CC50 [5, 39]: 8.6 µM; GI50 [6]: 1.73 µM; CC50 [6, 39]: 6.13 µM; GI50 [7]: 2.63 µM; CC50 [7, 39]: 83.4 µM; GI50 [8]: 2.61 µM; CC50 [8, 39]: 58.2 µM; GI50 [9]: 2.02 µM; CC50 [9, 39]: 14.9 µM; GI50 [10]: 1.84 µM; CC50 [10, 39]: 6.53 µM; GI50 [11]: 1.25 µM; CC50 [11, 39]: 6.1 µM; GI50 [12]: 1.63 µM; CC50 [12, 39]: 9.71 µM; GI50 [13]: 1.62 µM; CC50 [13, 39]: 9.06 µM; GI50 [14]: 1.68 µM; CC50 [14, 39]: 5.55 µM; GI50 [15]: 2.39 µM; CC50 [15, 39]: 41.7 µM; GI50 [16]: 1.8 µM; CC50 [16, 39]: 7.28 µM; GI50 [17]: 2 µM; CC50 [17, 39]: 9.91 µM; GI50 [18]: 1.95 µM; CC50 [18, 39]: 12.8 µM; GI50 [19]: 1.64 µM; CC50 [19, 39]: 5.63 µM; GI50 [20]: 2.48 µM; CC50 [20, 39]: 23.8 µM; GI50 [21]: 2.02 µM; CC50 [21, 39]: 8.59 µM; GI50 [22]: 3.05 µM; CC50 [22, 39]: > 100 µM; GI50 [23]: 1.41 µM; CC50 [23, 39]: 43.8 µM; GI50 [24]: 2.41 µM; CC50 [24, 39]: 18.5 µM; TGI [25]: > 100 µM; TGI [26]: 4.49 µM; TGI [27]: 4.2 µM; TGI [28]: 3.79 µM; TGI [29]: 3.71 µM; TGI [30]: 5.48 µM; TGI [31]: 3.19 µM; TGI [32]: 4.66 µM; TGI [33]: 11.7 µM; TGI [34]: 5.62 µM; TGI [35]: 8.48 µM; TGI [36]: 8.53 µM; TGI [37]: 4.76 µM; TGI [38]: 23.8 µM

Source: ChEMBL document CHEMBL5131391, “One-pot three-component synthesis of novel pyrazolo[3,4-b]pyridines as potent antileukemic agents” (Eur J Med Chem, 2022)
